Publication PMC3626398, “Strategies Aimed at Nox4 Oxidase Inhibition Employing Peptides from Nox4 B-Loop and C-Terminus and p22^phox N-Terminus: An Elusive Target” (International Journal of Hypertension, 2013)

How the values were obtained:
Nox4 = assay: H2O2-generating activity of lysed COS-Nox4 cells (Amplex Red fluorescence); format: biochemical, human; details: for inhibition of Nox4 activity (Nox4-derived H2O2 production): COS-Nox4 cell lysate preincubated with various concentrations of p22phox N-terminal peptide for 15 min at 24°C, mean of 3 experiments (Figure 3(b),(c)); for effect on Nox4 activity (H2O2 production): COS-Nox4 cell lysate preincubated with various concentrations of C-terminal tail peptide for 15 min at 24°C, mean of 3 experiments (Figure 2(b)); for inhibition of H2O2 production (Nox4 activity): COS-Nox4 cell lysate preincubated with peptide 1 to 50 μM for 15 min at 24°C, mean of 3 experiments (Figure 1(f))
Description: Cell transfection was carried out using Lipofectamine LTX and Plus reagent (Invitrogen, Carlsbad, CA, USA), according to the manufacturer's instructions. COS-22 cells were transiently transfected with pcDNA3.1/Hygro-hNox4 (COS-Nox4 cells). Western blot experiments were performed to validate the expression of Nox4 as we reported previously. Twenty-four hours after transfection, cells were harvested by incubating with 0.05% trypsin/EDTA for 5 min at 37°C. Following addition of DMEM/10% FBS to neutralize the trypsin, the cells were pelleted by centrifugation at 1000 ×g for 5 min at 4°C and used for the experiments.
H2O2 production was quantified in lysed COS-Nox4 cells as described previously. […] COS-Nox4 and COS-22 cells were suspended to a concentration of 5 × 10^7 cells/mL in ice-cold disruption buffer (PBS containing 0.1 mM EDTA, 10% glycerol, protease inhibitor cocktail, and 0.1 mM PMSF). The cells were lysed by five freeze/thaw cycles and passed through a 30-gauge needle five times to further lyse the cells. Throughout all these procedures, extreme care was taken to maintain the lysate at a temperature close to 0°C. Incubation of COS-Nox4 cell lysate (10 μg/100 μL) with peptides was performed in assay buffer (25 mM Hepes, pH 7.4, containing 120 mM NaCl, 3 mM KCl, 1 mM MgCl2, 25 μM FAD, 0.1 mM Amplex Red, and 0.32 U/mL of HRP) for 15 or 60 min at room temperature on an orbital shaker (120 movements/min), before the addition of 36 μM NADPH, to initiate H2O2 production. […] Fluorescence measurements were made using a Biotek Synergy 4 Hybrid Multi-Mode Microplate Reader (excitation wavelength: 560 nm; emission wavelength: 590 nm). A standard curve of known H2O2 concentrations was developed using the Amplex Red assay (as per the manufacturer's instructions) and was used to quantify H2O2 production in lysed COS-Nox4 cells. The reaction was monitored at room temperature for 40 min. The emission increase was linear during this interval. The rate of H2O2 production was interpolated from the standard curve and is […] nmol H2O2/min/mg protein. The effect of a peptide on Nox4-derived H2O2 production was expressed as percent inhibition of Nox4, which was calculated by considering H2O2 production by control mixtures in the absence of peptide as 100%.

Nox2 = details: ref [8]; cited from earlier work
Excerpt: With this in mind, in the current study, we tested whether application of a peptide mimic (B90–98) from the variable region of Nox4 B-loop interferes with the activity of Nox4. An important premise for this work was ...

WAMWAN [p22 WT 6–11]
inhibition of Nox4 activity (Nox4-derived H2O2 production) (Nox4; Amplex Red): did not inhibit

C555–562: octameric Nox4 C-terminal tail peptide, residues 555–562 (TLHKLSNQ; UniProt Q9NPH5 555-562, looked up, fragment)
effect on Nox4 activity (H2O2 production) (Nox4; Amplex Red): did not affect

B90–98: nonamer peptide mimic from the variable region of Nox4 B-loop, residues 90–98 (PSRRTRRLL; UniProt Q9NPH5 90-98, looked up, fragment)
inhibition of Nox4-derived H2O2 production (Nox4; COS-Nox4 cell lysate preincubated with peptide 0.1-100 μM for 15 min at 24°C, 36 μM NADPH, Amplex Red, mean of 3 experiments (Figure 1(d))): did not inhibit

B82–96: 15-mer peptide from the Nox4 B-loop, residues 82–96 (YLRGSQKVPSRRTRR; UniProt Q9NPH5 82-96, looked up, fragment)
inhibition of H2O2 production (Nox4 activity) (Nox4; Amplex Red): did not inhibit

Nox2ds: peptide mimicking the B-loop region of Nox2 (amino acids 86–94), earlier work of the authors (CSTRVRRQL; UniProt P04839 86-94, looked up, fragment)
inhibition of Nox2-derived O2•− production (Nox2): selectively and potently inhibits

C560–567: octameric Nox4 C-terminal tail peptide, residues 560–567 (SNQNNSYG; UniProt Q9NPH5 560-567, looked up, fragment)
effect on Nox4 activity (H2O2 production) (Nox4; Amplex Red): did not affect

PSRRTRELL [R96E mutant version of B90–98, R96E mutant version of B90–98 (…)]
inhibition of Nox4 activity (H2O2 production) (Nox4; COS-Nox4 cell lysate preincubated with peptide 0.3 to 30 μM for 15 min at 24°C, Amplex Red, mean of 3 experiments (Figure 1(e))): did not inhibit

B77–91: 15-mer peptide from the Nox4 B-loop, residues 77–91 (RTLLAYLRGSQKVPS; UniProt Q9NPH5 77-91, looked up, fragment)
inhibition of H2O2 production (Nox4 activity) (Nox4; Amplex Red): did not inhibit

RAMRAN [p22 W6/9R, p22phox 6–11 peptide with tryptophans mutated to arginine (RAMRAN)]
inhibition of Nox4 activity (Nox4-derived H2O2 production) (Nox4; Amplex Red): did not inhibit

c1ccc2c(c1)[I+]c1ccccc1-2 [DPI, diphenyleneiodonium chloride, reference compound]
inhibition of Nox4-dependent activity (rate of H2O2 generation) (Nox4; COS-Nox4 cell lysate, DPI 50 μM, 36 μM NADPH, Amplex Red/HRP, monitored at 24°C for 40 min, mean of 3 experiments): ~ 90%

C565–572: octameric Nox4 C-terminal tail peptide, residues 565–572 (SYGTRFEY; UniProt Q9NPH5 565-572, looked up, fragment)
effect on Nox4 activity (H2O2 production) (Nox4; Amplex Red): did not affect

B92–106: 15-mer peptide from the Nox4 B-loop, residues 92–106 (RRTRRLLDKSRTFHI; UniProt Q9NPH5 92-106, looked up, fragment)
inhibition of H2O2 production (Nox4 activity) (Nox4; Amplex Red): did not inhibit

C570–578: nonameric Nox4 C-terminal tail peptide, residues 570–578 (FEYNKESFS; UniProt Q9NPH5 570-578, looked up, fragment)
effect on Nox4 activity (H2O2 production) (Nox4; Amplex Red): did not affect
